# Source: paper PMC12017303 (Science Advances, 2025)
# pEC50, pIC50: −log10 of the molar value.
# Tests used:
# [1] = in vitro; details: human
# [2] = target: T1, SARS-CoV-2 M^Pro (Severe acute respiratory syndrome coronavirus 2, UniProt P0DTD1); test: biochemical
# [3] = in vitro; details: PAMPA, pH 7.4
# [4] = target: T1, SARS-CoV-2 M^Pro; test: biochemical; remark: listed apart in the source
# [5] = target: SARS-CoV-1 M^Pro (Severe acute respiratory syndrome coronavirus, UniProt P0C6X7); test: biochemical
# [6] = target: T1, SARS-CoV-2 M^Pro; assay type: biochemical
# [7] = target: SARS-CoV-2 M^Pro (Cys^145) (Severe acute respiratory syndrome coronavirus 2, UniProt P0DTD1); assay type: binding
# [8] = test system: SARS-CoV-2 WA.1 replicon in Vero ACE2 TMPRSS2; test: microbe, parasite or virus in culture; assay type: cell-based; details: Severe acute respiratory syndrome coronavirus 2, Vero, read-out: Replicon replication in Vero ACE2 TMPRSS2 EC50: WA.1
# [9] = test system: SARS-CoV-2 BA.2.86.1 replicon in Vero ACE2 TMPRSS2; test: microbe, parasite or virus in culture; assay type: cell-based; details: Severe acute respiratory syndrome coronavirus 2, Vero, read-out: Replicon replication in Vero ACE2 TMPRSS2 EC50: BA.2.86.1
# [10] = test system: SARS-CoV-2 WA.1 (icSARS-CoV-2-mNG) in A549-ACE2^h; test: microbe, parasite or virus in culture; assay type: cell-based; details: Severe acute respiratory syndrome coronavirus 2, read-out: Viral replication in A549-ACE2^h EC50: WA.1
# [11] = test system: human cytochrome P450 (CYP) isoforms
# [12] = in vitro; details: human, microsomes, pH 7.4
# [13] = in vitro; details: mouse, microsomes, pH 7.4
# [14] = in vitro; details: plasma
# [15] = target: CYP2C8 (Homo sapiens, UniProt P10632); details: 10 μM
# CYP2C8, sequence (P10632 whole entry): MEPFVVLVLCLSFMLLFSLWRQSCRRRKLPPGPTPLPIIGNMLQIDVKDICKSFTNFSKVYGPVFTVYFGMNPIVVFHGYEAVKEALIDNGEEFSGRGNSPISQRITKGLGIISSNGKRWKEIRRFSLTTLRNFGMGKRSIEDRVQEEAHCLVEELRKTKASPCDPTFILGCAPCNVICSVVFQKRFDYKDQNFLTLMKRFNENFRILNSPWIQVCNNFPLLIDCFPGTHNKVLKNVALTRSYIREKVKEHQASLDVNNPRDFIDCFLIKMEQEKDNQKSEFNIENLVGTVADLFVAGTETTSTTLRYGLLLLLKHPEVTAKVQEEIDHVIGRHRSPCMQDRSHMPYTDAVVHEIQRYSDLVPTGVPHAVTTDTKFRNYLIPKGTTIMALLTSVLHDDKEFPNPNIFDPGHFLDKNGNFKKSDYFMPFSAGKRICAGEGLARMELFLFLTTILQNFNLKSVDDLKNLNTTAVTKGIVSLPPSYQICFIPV
# [16] = male, CD-1, mouse, in vivo
# [17] = in vivo
# [18] = in vivo; details: male, CD-1, mouse; for AUC(0-t): AUClast
# [19] = in vivo; details: mouse
# [20] = physchem; details: pH 7.4, aqueous buffer, kinetic from dmso stock
# [21] = test system: P-gp (MDR1); test: in vitro; details: dog
# [22] = test system: HCoV Alpha 229E; test: organism not typed; assay type: cell-based, HCoV 229E; design: SI50 / SI90: unit not given beside the values
# [23] = test system: HCoV Beta OC43; test: microbe, parasite or virus in culture; assay type: cell-based; design: SI90 / SI50: unit not given beside the values
# [24] = test system: SARS-CoV-2 B.1.617.2 (delta); assay type: cell-based; design: SI50 / SI90: unit not given beside the values
# [25] = test system: SARS-CoV-2 BA.2 (omicron); test: microbe, parasite or virus in culture; assay type: cell-based; design: SI50 / SI90: unit not given beside the values
# [26] = test system: Huh7
# [27] = test system: Rhabdomyosarcoma
# [28] = test system: MERS-CoV EMC; test: microbe, parasite or virus in culture; assay type: cell-based; design: SI50 / SI90: unit not given beside the values
# [29] = test system: SARS-CoV Urbani; test: microbe, parasite or virus in culture; assay type: cell-based; design: SI90 / SI50: unit not given beside the values
# [30] = pH 7.4, plasma protein binding (PPB)
# [31] = Middle East respiratory syndrome-related coronavirus, Vero C1008
# [32] = Severe acute respiratory syndrome coronavirus, Vero C1008
smiles,measurement,setting,value
O=C1CCN(Cc2cccs2)C(=O)N1Cc1ccc[nH]c1=O [AVI-1084],CC50,[1],> 100000 nM
same,viability at 100 µM,[1],100%
O=C1CCN(Cc2cc(Cl)cs2)C(=O)N1Cc1ccc[nH]c1=O [AVI-3318],pIC50,[2],5.34
same,CC50,[1],> 100000 nM
same,viability at 100 µM,[1],88.9%
O=C1CCN(Cc2ccsc2)C(=O)N1Cc1ccc[nH]c1=O [AVI-3320],pIC50,[2],4.64
same,CC50,[1],> 100000 nM
same,viability at 100 µM,[1],100%
O=C1CCN(Cc2csc(Cl)c2)C(=O)N1Cc1ccc[nH]c1=O [AVI-3570],pIC50,[2],5.82
same,CC50,[1],> 100000 nM
same,viability at 100 µM,[1],100%
O=C1CCN(Cc2csc(Cl)c2)C(=O)N1c1cncc2ccccc12 [AVI-3778],pIC50,[2],6.07
same,"M^Pro inhibition, result in words",[2],submicromolar potencies
same,CC50,[1],> 100000 nM
same,viability at 100 µM,[1],95.7%
same,Papp,[3],26.4 ×10⁻⁶ cm/s
O=C1CCN(Cc2cccc(Cl)c2)C(=O)N1c1cncc2ccccc12 [AVI-3779],pIC50,[2],6.18
same,"M^Pro inhibition, result in words",[2],submicromolar potencies
same,CC50,[1],> 100000 nM
same,viability at 100 µM,[1],100%
same,Papp,[3],23.9 ×10⁻⁶ cm/s
O=C1CCN(Cc2cccc(F)c2)C(=O)N1c1cncc2ccccc12 [AVI-3780],pIC50,[2],6.10
same,"M^Pro inhibition, result in words",[2],submicromolar potencies
same,CC50,[1],> 100000 nM
same,viability at 100 µM,[1],100%
same,Papp,[3],19.6 ×10⁻⁶ cm/s
O=C1CCN(Cc2cccc(Cl)c2)C(=O)N1Cc1ccc[nH]c1=O [AVI-3993],pIC50,[2],5.07
O=c1cc(-c2cccc(Cl)c2)[nH]c(=O)n1-c1cncc2ccccc12 [AVI-4301],pIC50,[2],5.19
same,CC50,[1],> 100000 nM
same,viability at 100 µM,[1],100%
same,Papp,[3],31.8 ×10⁻⁶ cm/s
O=c1[nH]c(-c2cccc(Cl)c2)c(-n2nnc3ccccc32)c(=O)n1-c1cncc2ccccc12 [AVI-4303],pIC50,[2],6.52
same,CC50,[1],> 100000 nM
same,viability at 100 µM,[1],92.3%
same,Papp,[3],6.6 ×10⁻⁶ cm/s
C#CCn1c(-c2cccc(Cl)c2)c(-n2nnc3ccccc32)c(=O)n(-c2cncc3ccccc23)c1=O [AVI-4692],pIC50,[2],7.43
same,kinact/KI,[4],27000 M⁻¹ s⁻¹
same,pIC50,[5],6.92
same,M^Pro activity after dialysis,[6],activity was not regained
same,covalent adduct by whole protein MS,[7],mass shifts consistent with modification at a single site
same,pEC50,[8],7.59
same,pEC50,[9],7.57
same,pEC50,[10],8.17
same,"CYP inhibition, result in words",[11]; 10 μM,somewhat more potent inhibitor of both CYP2C8 and CYP3A4
same,Papp,[3],31.8 ×10⁻⁶ cm/s
same,half-life,[12],> 2 h
same,half-life,[13],> 2 h
same,fraction unbound,[14]; [30],< 0.01
C#CCn1c(C)c(-n2nnc3cc(F)c(F)cc32)c(=O)n(-c2cncc3ccccc23)c1=O [AVI-4773],pIC50,[5],7.02
same,M^Pro activity after dialysis,[6],activity was not regained
same,covalent adduct by whole protein MS,[7],mass shifts consistent with modification at a single site
same,pEC50,[8],7.22
same,pEC50,[9],7.31
same,pEC50,[10],7.72
same,inhibition across the CYP panel,"[11]; human, pH 7.4",≤ 25%
same,CYP2C8 inhibition,[15],~ 45%
same,Mouse F,[16],110
same,free concentration in plasma,[16],4.045 µM
same,AUClast,"[16]; po, 50 mg/kg",94700 ng·h/mL
same,Plasma T½,"[16]; po, 50 mg/kg",13 h
same,exposure in BALF,"[17]; mouse, po",~ 4400 nM
same,bioavailability,[18]; F,110%
same,MRT inf,"[18]; iv, 10 mg/kg",2.06 h
same,clearance,"[18]; iv, 10 mg/kg",9.57 mL/min/kg
same,half-life,"[18]; iv, 10 mg/kg",1.22 h
same,AUC(0-inf),"[18]; iv, 10 mg/kg, AUCINF",17400 ng·h/mL
same,AUC(0-t),"[18]; iv, 10 mg/kg",17200 ng·h/mL
same,Vd,"[18]; iv, 10 mg/kg, Vss",1.18 L/kg
same,bioavailability,[18]; oral bioavailability (%F),> 100%
same,half-life,"[18]; po, 50 mg/kg",13 h
same,AUC(0-inf),"[18]; po, 50 mg/kg, AUCINF",273000 ng·h/mL
same,AUC(0-inf),"[18]; po, 50 mg/kg, AUCinf",272000 ng·h/mL
same,AUC(0-t),"[18]; po, 50 mg/kg",94700 ng·h/mL
same,Cmax,"[18]; po, 50 mg/kg, CMax",14900 ng/mL
same,Cmax,"[18]; po, 50 mg/kg, Cmax",14900 ng/mL
same,Tmax,"[18]; po, 50 mg/kg, TMax",0.5 h
same,Tmax,"[18]; po, 50 mg/kg, Tmax",0.5 h
same,Kp,[19],~0.08
same,solubility,[20],431 µM
same,half-life,[12],> 2 h
same,half-life,[13],> 2 h
same,fraction unbound,"[14]; pH 7.4, PPB",0.19
same,fraction unbound,[14]; [30],0.17
same,Papp B→A,[21]; MDCK-MDR1,70.8 ×10⁻⁶ cm/s
same,Papp A→B,"[21]; MDCK-MDR1, MDCK AB",17.8 ×10⁻⁶ cm/s
"O=c1nc(NO)ccn1[C@@H]1O[C@H](CO)[C@@H](O)[C@H]1O [EIDD-1931, reference compound]",SI50,[22],> 23
same,SI90,[22],> 27
same,pEC50,[22]; read-out: EC50,6.36
same,EC90,[22]; read-out: EC90,370 nM
same,SI50,[23],170
same,SI90,[23],190
same,pEC50,[23]; read-out: EC50,7.46
same,EC90,[23]; read-out: EC90,32 nM
same,pEC50,[24],6.77
same,EC90,[24],50 nM
same,SI50,[24],210
same,SI90,[24],720
same,SI50,[25],810
same,SI90,[25],1000
same,pEC50,[25]; read-out: EC50,7.28
same,EC90,[25]; read-out: EC90,43 nM
same,CC50,[26],> 10000 nM
same,CC50,[27],6100 nM
"Cn1cnc(Cn2c(=O)[nH]/c(=N\c3cc4cn(C)nc4cc3Cl)n(Cc3cc(F)c(F)cc3F)c2=O)n1 [ensitrelvir, reference compound]","Brain, Mean","[17]; CD1, mouse",47.9 ng/g
"CCC(CC)COC(=O)[C@H](C)N[P@](=O)(OC[C@H]1O[C@@](C#N)(c2ccc3c(N)ncnn23)[C@H](O)[C@@H]1O)Oc1ccccc1 [remdesivir, reference compound]",SI50,[28],540
same,SI90,[28],51
same,pEC50,[28]; [31],8.43
same,EC90,[28]; [31],39 nM
same,SI50,[29],> 83
same,SI90,[29],> 71
same,pEC50,[29]; [32],6.92
same,EC90,[29]; [32],140 nM
